# Test results published in patent US4251444A, “Thiazepino-[4,3-b]-isoquinoline-1,5-dione derivatives and precursors” (American Home Products Corporation, priority 1980, dated 1981).
# Tested on: male spontaneously hypertensive rats
# Assay: blood pressure lowering, systolic pressure by Decker Caudal Plethysmograph
# Format: in vivo
# Conditions: four hours after administration of a 50 milligram dose; standard experimental rat, oral
# Protocol: The compounds tested were administered orally and blood pressure was read prior to and at 1.5, 4 and 24 hours after drug administration.
structure (smiles),measurement,value
"CC(CSC(=O)c1ccccc1)C(=O)N1Cc2ccccc2CC1C(=O)O (single isomer, unassigned) [Example 4, 2-(3-Benzoylthio-2-methylpropanoyl)-1,2,3,4-tetrahydroisoquinoline-3-carboxylic acid]",reduction of blood pressure,29 millimeters
